Converted amounts (≈) assume the structure as drawn.
How the values were obtained:
Toxoplasma gondii [1] = test: Antiparasitic activity against Toxoplasma gondii; type: functional, organism-based
Toxoplasma gondii [2] = test: Antiparasitic activity against Toxoplasma gondii infected in human HFF cells after 4 hrs; type: functional, organism-based
[3] = Half life of the compound; type: physicochemical
[4] = Therapeutic index, ratio of TD50 in CF-1 mouse to IC50 of Toxoplasma gondii infected in human HFF cells; type: toxicity, cell-based; details: read-out: TI
Toxoplasma gondii [5] = test: Antiparasitic activity against Toxoplasma gondii infected in CF-1 mouse at 0.04 to 50 mg/kg, po after 48 hrs; type: functional
Toxoplasma gondii [6] = test: Antiparasitic activity against Toxoplasma gondii infected in human HFF cells after 4 hrs by CellTiter 96Aqueous One cell viability assay; type: functional, organism-based
Toxoplasma gondii [7] = test: Antiparasitic activity against Toxoplasma gondii infected in human HuH7 cells; type: functional, organism-based
Toxoplasma gondii [8] = test: Antiparasitic activity against Toxoplasma gondii infected in human HFF cells after 7 days by crystal violet assay; type: functional, organism-based; details: 168 h
Toxoplasma gondii [9] = test: Antiparasitic activity against Toxoplasma gondii RH infected in human HFF cells in presence of […] by radio-labelled assay; type: functional, organism-based
HFF = test: Cytotoxicity against human HFF cells assessed as reduction in cell viability; type: cell-based
[10] = Selectivity index, ratio of EC50 for human HFF cells to EC50 Toxoplasma gondii RH; type: functional
Huh-7 = test: Cytotoxicity against human HuH7 cells assessed as reduction in cell viability; type: functional, cell-based
[11] = Inhibition of Toxoplasma gondii CDPK1

Q: Which IC50 (Toxoplasma gondii [1]) does the source give for `CC(=O)[C@@H]1CC[C@]2(C)CC[C@]3(C)[C@H](CC[C@@H]4[C@@]5(C)CCC(=O)C(C)(C)[C@@H]5CC[C@]43C)[C@@H]12` here?
A: 24400 nM

Q: With `CC(C)(C)C1=CC(=NNc2ccc([N+](=O)[O-])cc2[N+](=O)[O-])C=C(C(C)(C)C)C1=O` as the compound, how does the IC50 (Toxoplasma gondii [2]) read?
A: 130 nM

Q: Which IC50 (Toxoplasma gondii [1]) does the source give for `CCc1ccc(C(=O)NC(=O)c2ccccc2O)cc1` here?
A: 16 to 32 nM

Q: And the half-life [3]?
A: < 10 min

Q: Which IC50 (Toxoplasma gondii [1]) does the source give for `CCN(CC)c1ccc(C(=O)NC(=O)c2ccccc2O)cc1` here?
A: 8 nM

Q: What about the half-life [3] of the same compound?
A: 33 min

Q: For `C[C@H]1[C@H](C)CC[C@]2(C(=O)O)CC[C@]3(C)C(=CC[C@@H]4[C@@]5(C)CC[C@H](O)C(C)(C)[C@@H]5CC[C@]43C)[C@H]12` [URSOLIC ACID], which IC50 (Toxoplasma gondii [1]) is on record?
A: 5900 nM

Q: For `O=C(Nc1ccc([N+](=O)[O-])cc1Cl)c1cc(Cl)ccc1O` [NICLOSAMIDE], which EC50 (Toxoplasma gondii [1]) is on record?
A: 0.0453 µg/mL

Q: Which results are given for `Cc1[nH]c2ccccc2c(=O)c1-c1ccc(Oc2ccc(OC(F)(F)F)cc2)cc1`?
A: selectivity ratio [4]: 93500; ED50 (Toxoplasma gondii [5]): 0.14 mg/kg; IC50 (Toxoplasma gondii [6]): 1 nM

Q: For `O=C1CN(CCCCCN2CCCCC2)c2ccc([N+](=O)[O-])cc2N1`, which MIC50 (Toxoplasma gondii [7]) is on record?
A: 3.3 µM (≈ 1.14 µg/mL)

Q: For `CC(C)(C)[C@H]1CC[C@H](CC2=C(O)C(=O)c3ccccc3C2=O)CC1` [BUPARVAQUONE], which IC50 (Toxoplasma gondii [1]) is on record?
A: 100 nM

Q: With `O=C(CC1NCCCC1O)Cn1cnc2cc(Br)c(Cl)cc2c1=O` (centres undefined) [HALOFUGINONE] as the compound, how does the EC50 (Toxoplasma gondii [1]) read?
A: 1.4 nM

Q: For `Cc1coc2c1C(=O)C(=O)c1c-2ccc2c1CCCC2(C)C` [TANSHINONE IIA], which IC50 (Toxoplasma gondii [1]) is on record?
A: 2500 nM

Q: For `C[C@H]1Cc2c([nH]c3cc(Cl)c(F)cc23)[C@@]2(N1)C(=O)Nc1ccc(Cl)cc12` [CIPARGAMIN], which IC50 (Toxoplasma gondii [7]; Huh-7) is on record?
A: 1000 nM

Q: With `C/C1=C\[C@H](C)C[C@H](C)OC(=O)C[C@H](c2ccc(O)cc2)NC(=O)[C@@H](Cc2c(Br)[nH]c3ccccc23)N(C)C(=O)[C@H](C)NC(=O)[C@@H](C)C1` [JASPAMIDE] as the compound, how does the EC50 (Toxoplasma gondii [8]) read?
A: 30 to 300 nM

Q: Which IC50 (Toxoplasma gondii [1]) does the source give for `O=C1C2=C(C(=O)c3ccccc31)[C@H]1Oc3ccc(Cl)cc3[C@H]1CO2` here?
A: < 1000 nM

Q: Which results are given for `COc1cc2[nH]c(C)c(-c3ccc(Oc4ccc(OC(F)(F)F)cc4)cc3)c(=O)c2cc1F`?
A: selectivity ratio [4]: > 7.1e+06; ED50 (Toxoplasma gondii [5]): 0.08 mg/kg; IC50 (Toxoplasma gondii [6]): 0.007 nM

Q: With `O=C1C=C/C(=N\Oc2ccc([N+](=O)[O-])cc2[N+](=O)[O-])c2cccnc21` as the compound, how does the IC50 (Toxoplasma gondii [1]) read?
A: 1340 nM

Q: Which results are given for `CC[C@]1(C)NC(=O)[C@H](CCCCCC(=O)[C@@H](C)OC(C)=O)NC(=O)[C@H]2C[C@H](C)CN2C(=O)[C@H](Cc2ccccc2)NC1=O`?
A: EC50 (Toxoplasma gondii [9]): 10.2 nM; EC50 (HFF): 632 nM; Selectivity Index [10]: 62

Q: With `O=C(C[C@H]1NCCC[C@@H]1O)Cn1cnc2c(c1=O)CCCC2` as the compound, how does the EC50 (Toxoplasma gondii [1]) read?
A: 880 nM

Q: Which IC50 (Toxoplasma gondii [8]) does the source give for `CCCOc1ccccc1-c1nc2[nH]nnc2c(=O)[nH]1` [ZAPRINAST] here?
A: 60000 nM

Q: Which EC50 (Toxoplasma gondii [1]) does the source give for `O=C1CCCN[C@@H]1CCCn1cnc2ccccc2c1=O` here?
A: 8900 nM

Q: For `CC(C)(C)c1cc(C2C(C#N)=C(N)OC3=C2C(=O)CCC3)cc(C(C)(C)C)c1O` (centres undefined), which IC50 (Toxoplasma gondii [2]) is on record?
A: 1300 nM

Q: For `CC(C)c1n[nH]c2c(=O)[nH]c(Cc3ccccc3)nc12`, which IC50 (Toxoplasma gondii [8]) is on record?
A: 2000 nM

Q: With `CC(C)(C)C1=CC(=NNC(=O)c2ccncc2)C=C(C(C)(C)C)C1=O` as the compound, how does the IC50 (Toxoplasma gondii [2]) read?
A: 2300 nM

Q: For `CCOc1ccc(/C=C/c2nc(=O)c3ccccc3o2)cc1`, which IC50 (Toxoplasma gondii [2]) is on record?
A: 270 nM

Q: For `OCCCCCCC1COOC2(CCCCCCCCCCC2)OO1` (centres undefined), which IC50 (Huh-7) is on record?
A: 310 µg/mL (≈ 865 µM)

Q: And the LC50 (Toxoplasma gondii [7]; Huh-7)?
A: 1.11 µg/mL (≈ 3.1 µM)

Q: With `O=c1[nH]c2cc(Cl)ccc2n1C1CCN(CCCC(c2ccc(F)cc2)c2ccc(F)cc2)CC1` [CLOPIMOZIDE] as the compound, how does the IC50 (Toxoplasma gondii [1]) read?
A: 1800 nM

Q: Which IC50 (Toxoplasma gondii [1]) does the source give for `OCCOCCN1CCN(C(c2ccccc2)c2ccc(Cl)cc2)CC1` (centres undefined) [HYDROXYZINE] here?
A: 1000 nM

Q: For `CC1(C)CC[C@]2(C(=O)O)CC[C@]3(C)C(=CC[C@@H]4[C@@]5(C)CC[C@H](O)C(C)(C)[C@@H]5CC[C@]43C)[C@@H]2C1` [OLEANOLIC_ACID], which IC50 (Toxoplasma gondii [1]) is on record?
A: 54800 nM

Q: With `CC(=O)O[C@H]1CC[C@]2(C)[C@H]3CC=C4[C@@H]5[C@@H](C)[C@H](C)CC[C@]5(C(=O)O)CC[C@@]4(C)[C@]3(C)CC[C@H]2C1(C)C` [O-ACETYLURSOLIC ACID] as the compound, how does the IC50 (Toxoplasma gondii [1]) read?
A: 7900 nM

Q: With `CC/C(=C(\c1ccccc1)c1ccc(OCCN(C)C)cc1)c1ccccc1` [TAMOXIFEN] as the compound, how does the IC50 (Toxoplasma gondii [1]) read?
A: 1900 nM

Q: Which EC50 (Toxoplasma gondii [1]) does the source give for `Cc1cccc(Cc2nn(C(C)(C)C)c3ncnc(N)c23)c1` here?
A: 110 nM

Q: What about the IC50 [11] of the same compound?
A: 3.99 nM

Q: For `O=c1[nH]ccc2nc(NC3CCCNC3)nc(Nc3ccc(S(=O)(=O)N4CCOCC4)cc3)c12` (centres undefined), which IC50 (Toxoplasma gondii [1]) is on record?
A: < 500 nM

Q: For `CC(=O)O[C@H]1CC[C@]2(C)[C@H]3CC=C4[C@@H]5CC(C)(C)CC[C@]5(C(=O)O)CC[C@@]4(C)[C@]3(C)CC[C@H]2C1(C)C` [ACETYL OLEANOLIC ACID], which IC50 (Toxoplasma gondii [1]) is on record?
A: 6800 nM

Q: With `O=c1c2ccccc2ncn1C[C@H](O)C[C@H]1NCCC[C@@H]1O` as the compound, how does the EC50 (Toxoplasma gondii [1]) read?
A: 1900 nM

Q: Which IC50 (Toxoplasma gondii [1]) does the source give for `C=CC(C)(C)c1cc(/C=C/C(=O)c2ccc(O)cc2)c(OC)cc1O` [LICOAGROCHACONE A] here?
A: 0.848 µg/mL

Q: For `Cc1[nH]c2cc(F)cc(F)c2c(=O)c1-c1ccc(Oc2ccc(OC(F)(F)F)cc2)cc1`, which EC50 (Toxoplasma gondii [6]) is on record?
A: 5 nM

Q: With `C[C@H]1[C@H](C)CC[C@]2(C(=O)OCCn3cnnc3-c3ccccc3)CC[C@]3(C)C(=CC[C@@H]4[C@@]5(C)CC[C@H](O)C(C)(C)[C@@H]5CC[C@]43C)[C@H]12` as the compound, how does the IC50 (Toxoplasma gondii [1]) read?
A: 128 µg/mL

Q: For `CC(C)(C)C1=CC(=NNC(=O)c2ccc([N+](=O)[O-])cc2)C=C(C(C)(C)C)C1=O`, which IC50 (Toxoplasma gondii [2]) is on record?
A: 200 nM

Q: Which IC50 (Toxoplasma gondii [1]) does the source give for `CC(C)n1c(/C=N/Nc2nc3ccccc3[nH]2)nc2ccccc21` here?
A: 1360 nM

Q: With `COc1ccc(OC)c(NCc2ccc3nc(N)nc(N)c3c2Cl)c1` as the compound, how does the IC50 (Toxoplasma gondii [1]) read?
A: 20 nM

Q: Which EC50 (Toxoplasma gondii [9]) does the source give for `C=C(C)[C@H](CC=C(C)C)C[C@]12C[C@H](CC=C(C)C)C(C)(C)[C@](CC=C(C)C)(C(=O)C(C(=O)c3ccc(O)c(O)c3)=C1O)C2=O` here?
A: 1800 nM

Q: For `CC[C@]1(C)NC(=O)[C@H](CCCCCC(=O)[C@@H](C)OC(=O)Oc2ccccc2)NC(=O)[C@H]2C[C@H](C)CN2C(=O)[C@H](Cc2ccccc2)NC1=O`, which EC50 (Toxoplasma gondii [9]) is on record?
A: 11.3 nM

Q: What about the EC50 (HFF) of the same compound?
A: 59.2 nM

Q: And the “Selectivity Index” value [10]?
A: 47.7

Reference: ChEMBL document CHEMBL4402536, “Recent progress on anti-Toxoplasma drugs discovery: Design, synthesis and screening” (Eur J Med Chem, 2019)
